The test system of series [1] is AsPC-1 (ATCC CRL-1682) cells. The series can be described thus: KRAS G12D 2D CellTiter-Glo proliferation assay, AsPC-1. Type of series: cell-based. The following applies: Homo sapiens, ASPC1, 2D proliferation, 72 hours. On the procedure: (§1) AsPC-1 (ATCC CRL-1682) and LS513 (ATCC CRL-2134) cells were purchased from ATCC, GP2D (Cobioer CBP60010) cells was purchased from Cobioer biosciences CO., LTD, and each cell was cultured in medium supplemented with 10% fetal bovine serum (FBS), according to the protocol recommended by the manufacture. Cells were seeded 800 cells/well in 384-well plates (Corning) and incubated at 37° C., 5% CO2 for 18 hours. Serially diluted compound was added to the cells, and plates were incubated at 37° C., 5% CO2 for 72 hours. Cell viability was measured using a CellTiter-Glo® Luminescent Cell Viability Assay kit (Promega) according to the manufacturer's protocol.
(§2) The 2D and 3D proliferation data of the exemplary compounds of the present disclosure in different cell lines are shown in Table 3.

Series [2] deals with Panc-1 p-ERK. In words: Phospho-ERK 1/2 assay, Panc-1 (Table 2). Type of series: cell-based. The following applies: Homo sapiens; Panc-1 cells. How it is done: (§3) Allow PNAC-1/HPAC cell growth in a T75 flask in DMEM and 10% 1 fetal calf serum (FCS; Gibco), using standard tissue culture procedures until ˜80% confluency is achieved. Day 1, seed 6000 cells/well in 384 well plate and incubate at 37° C., 5% CO2. Add diluted compound by Echo 550, final DMSO is 0.5%, incubate cells at 37° C., 5% CO2 for 3 hours. Then, remove medium and fix cells with 3.7% formaldehyde in PBS (PFA) by Apricot. Wash with PBS once. Permeabilize cells with cold 100% methanol and repeat wash once with PBS once. Add Li-Cor blocking buffer to each well and incubate 1.5 hours at RT. Remove blocking buffer and add primary antibody mixture (rabbit anti pERK, mouse anti GAPDH). Incubate at 4° C. overnight. Day 2, wash with PBST (Tween-20 in PBS) with total 3 times and then add secondary antibody mixture (goat anti rabbit 800CW (1:800 dilution in the combined solution) and goat anti mouse 680RD (1:800 dilution in the combined solution)), incubate for 60 minutes at RT away from light. Repeat washing with PBST 3 times. After final wash, centrifuge plate up-side-down at 1000 rpm to remove wash solution completely from wells. Before plate scanning, clean the bottom plate surface and the Odyssey* Imager scanning bed (if applicable) with moist, lint-free tissue to avoid any obstructions during scanning. Scan plate with detection in both 700 and 800 nm channels.
(§4) Table 2 describes the p-ERK IC50 values and selectivity over WT-KRAS cell line MKN-1 of the exemplary compounds of the present disclosure and reference compound MRTX-1133.

Series [3] has as its system AsPC-1 (ATCC CRL-1682) cells. The series can be described thus: KRAS G12D 3D CellTiter-Glo proliferation assay, AsPC-1. Type of series: cell-based. Conditions: Homo sapiens, ASPC1, 168 h; 3D proliferation, 7 days, CellTiter-Glo 3D. On the procedure: (§5) HPAC (ATCC CRL-2119) and AsPC-1 (ATCC CRL-1682) cells were purchased from ATCC, and each cell was cultured in medium supplemented with 10% fetal bovine serum (FBS), according to the protocol recommended by the manufacture. Serially diluted compound was added to 384-well Ultra-Low Attachment Surface round bottom plate (Corning). 400 cells/well were seeded in plate and incubated at 37° C., 5% CO2 for 7 days. Cell viability was measured using a CellTiter-Glo® 3D Cell Viability Assay kit (Promega) according to the manufacturer's protocol.
as §2

Series [4] concerns LS513 (ATCC CRL-2134) cells. The series can be described thus: KRAS G12D 2D CellTiter-Glo proliferation assay, LS513. The following applies: Homo sapiens, LS-513, 2D proliferation, 72 hours. In kind it is cell-based. On the procedure: as §1, §2
Series [5] has as its system WT-KRAS cell line MKN-1. In words: Phospho-ERK 1/2 assay, WT-KRAS cell line MKN-1 (Table 2). Type of series: cell-based. Conditions: for IC50: Homo sapiens, WT-KRAS cell line MKN-1, p-ERK; for Selectivity Fold: selectivity over WT-KRAS cell line MKN-1 vs Panc-1 p-ERK. On the procedure:
as §3, §4

The subject of series [6] is HPAC (ATCC CRL-2119) cells. In words: KRAS G12D 3D CellTiter-Glo proliferation assay, HPAC. Type of series: cell-based. The following applies: Homo sapiens, 168 h, 3D proliferation, 7 days, CellTiter-Glo 3D. On the procedure:
as §5, §2

The test system of series [7] is GP2D (Cobioer CBP60010) cells. In words: KRAS G12D 2D CellTiter-Glo proliferation assay, GP2D. In kind it is cell-based. Conditions: 2D proliferation, 72 hours. How it is done: as §1, §2
The test system of series [8] is p-ERK in PNAC-1/HPAC cell. In words: Phospho-ERK 1/2 assay (Table 1). In kind it is cell-based. Conditions: Homo sapiens; PNAC-1/HPAC cell, 3 hours compound incubation; read-out: p-ERK IC50. How it is done: as §3
Series [9] can be described thus: In vivo oral bioavailability assay. The following applies: Balb/c mice female, IV bolus 1 mg/kg and oral gavage 30 mg/kg, single dose. How it is done:
Single dose following IV bolus (1 mg/kg, 0.2 mg/mL in 1% DMSO, 99% SBE-β-CD (10% w/v) in water) and oral gavage (30 mg/kg, 3 mg/mL in 1% MC in DI water) administration of test compound in Balb/c Mice female. The blood samples were collected at 2 min, 5 min, 10 min, 30 min, 1 hr, 2 hr, 4 hr, 8 hr and 24 hr (additional 32 hr and 48 hr for MRTX1133) after IV bolus, at 15 min, 30 min, 1 hr, 1.5 hr, 2 hr, 3 hr, 4 hr, 8 hr and 24 hr (additional 32 hr and 48 hr for MRTX1133) after PO administration. The plasma concentrations of compounds were determined with UPLC-MS/MS.

Each structure is given as a SMILES string.

On to `C#Cc1c(F)ccc2cccc(-c3nc4c5c(nc(OC[C@@]67CCCN6C[C@H](F)C7)nc5c3F)N3CC5CCC(N5)[C@H]3CO4)c12` (single isomer, unassigned) [Compound 10], for which the IC50 in [1] came out at 0.49 µM; in series [2] it was 0.002 µM; in [3], 0.048 µM; in series [4] it was 0.238 µM; in series [5], 0.343 µM; in series [6], 0.028 µM. Moreover, the figures for the IC50 in series [7] and in series [8] were 0.015 µM and 0.002 µM, respectively. Further, the “Selectivity Fold” value in series [5] was found to be 171 Fold. In addition, the “Bioavailability (%)” value in series [9] came out at 37.7%. For the same compound, the “Fa*Fg (%)” value in series [9] is listed as 54.0%.

Take `Oc1cc(Cl)c(C2CC2)c(-c2nc3c4c(nc(OC[C@@]56CCCN5C[C@H](F)C6)nc4c2F)N2C[C@@H]4CC[C@@H](N4)C2CO3)c1` (stereo partly drawn) [Compound 24, 3-chloro-4-cyclopropyl-5-((6R,9S)-1-fluoro-12-(((2R,7aS)-2-fluorotetrahydro-1H-pyrrolizin-7a(5H)-yl)methoxy)-5a,6,7,8,9,10-hexahydro-5H-4-oxa-3,10a,11,13,14-pentaaza-6,9-methanonaphtho[1,8-ab]heptalen-2-yl)phenol]: the concentration for half-maximal inhibition (IC50) in series [1] stood at 0.071 µM; in series [3], 0.0087 µM; in series [4] it was 0.093 µM; in series [6], 0.0071 µM; in series [7], 0.0022 µM; in [8], 0.007 µM.

For `C#Cc1cccc2cccc(-c3nc4c5c(nc(OC[C@@]67CCCN6C[C@H](F)C7)nc5c3F)N3C[C@H]5CC[C@H](N5)[C@H]3CO4)c12` [Compound 25, (5aS,6S,9R)-2-(8-ethynylnaphthalen-1-yl)-1-fluoro-12-(((2R,7aS)-2-fluorotetrahydro-1H-pyrrolizin-7a(5H)-yl)methoxy)-5a,6,7,8,9,10-hexahydro-5H-4-oxa-3,10a,11,13,14-pentaaza-6,9-methanonaphtho[1,8-ab]heptalene], the IC50 in [1] was determined as 0.516 µM; in series [2], 0.01 µM; in series [3], 0.054 µM; in series [4] it was 0.08 µM; in series [5] it was 0.754 µM; in series [6], 0.076 µM. Further, the concentration for half-maximal inhibition (IC50) in series [7] was 0.023 µM; in [8], 0.01 µM. Also, the “Selectivity Fold” value in series [5] stood at 75 Fold. In addition, the “Bioavailability (%)” value in [9] was determined as 39.2%. In series [9], the “Fa*Fg (%)” value was 56.6%.

As for `CCc1c(F)ccc2cc(O)cc(-c3nc4c5c(nc(OC[C@@]67CCCN6C[C@H](F)C7)nc5c3F)N3C[C@H]5CC[C@H](N5)[C@H]3CO4)c12` [Compound 28, 5-ethyl-6-fluoro-4-((5aS,6S,9R)-1-fluoro-12-(((2R,7aS)-2-fluorotetrahydro-1H-pyrrolizin-7a(5H)-yl)methoxy)-5a,6,7,8,9,10-hexahydro-5H-4-oxa-3,10a,11,13,14-pentaaza-6,9-methanonaphtho[1,8-ab]heptalen-2-yl)naphthalen-2-ol], the IC50 in series [1] turned out to be 0.035 µM; in series [2] it was 0.00076 µM; in [3], 0.0047 µM; in series [4], 0.0252 µM; in series [5], 0.076 µM; in series [6] it was 0.0033 µM. Also, the results for the IC50 in [7] and in [8] were 0.0012 µM and 0.00076 µM, respectively. The “Selectivity Fold” value in [5] came to 100 Fold.

Turning to `C#Cc1c(F)ccc2cccc(-c3nc4c5c(nc(OCC6(CN7CCOCC7)CC6)nc5c3F)N3C[C@H]5CC[C@H](N5)[C@H]3CO4)c12` [Compound 40, (5aS)-2-(8-ethynyl-7-fluoronaphthalen-1-yl)-1-fluoro-12-((1-(morpholinomethyl)cyclopropyl)methoxy)-5a,6,7,8,9,10-hexahydro-5H-4-oxa-3,10a,11,13,14-pentaaza-6,9-methanonaphtho[1,8-ab]heptalene], the IC50 in [8] was found to be 0.155 µM.

For the compound `C#Cc1c(F)ccc2cccc(-c3nc4c5c(nc(OCC6(CN7CCO[C@H](C)C7)CC6)nc5c3F)N3C[C@H]5CC[C@H](N5)[C@H]3CO4)c12` [Compound 41, (5aS)-2-(8-ethynyl-7-fluoronaphthalen-1-yl)-1-fluoro-12-((1-(((R)-2-methylmorpholino)methyl)cyclopropyl)methoxy)-5a,6,7,8,9,10-hexahydro-5H-4-oxa-3,10a,11,13,14-pentaaza-6,9-methanonaphtho[1,8-ab]heptalene], the IC50 in series [8] is 0.39 µM.

With `C#Cc1c(F)ccc2cccc(-c3nc4c5c(nc(OCC6(CN7CCOC[C@H]7C)CC6)nc5c3F)N3C[C@H]5CC[C@H](N5)[C@H]3CO4)c12` [Compound 42, (5aS)-2-(8-ethynyl-7-fluoronaphthalen-1-yl)-1-fluoro-12-((1-(((R)-3-methylmorpholino)methyl)cyclopropyl)methoxy)-5a,6,7,8,9,10-hexahydro-5H-4-oxa-3,10a,11,13,14-pentaaza-6,9-methanonaphtho[1,8-ab]heptalene], the IC50 in series [8] was 0.159 µM.

Consider `CCCCCCCCCC(=O)OCOC(=O)N1[C@@H]2CC[C@H]1[C@H]1COc3nc(-c4cc(O)cc5ccc(F)c(CC)c45)c(F)c4nc(OC[C@@]56CCCN5C[C@H](F)C6)nc(c34)N1C2` [Compound 45, (Decanoyloxy)methyl (5aS,6S,9R)-2-(8-ethyl-7-fluoro-3-hydroxynaphthalen-1-yl)-1-fluoro-12-(((2R,7aS)-2-fluorotetrahydro-1H-pyrrolizin-7a(5H)-yl)methoxy)-5a,6,7,8,9,10-hexahydro-5H-4-oxa-3,10a,11,13,14-pentaaza-6,9-methanonaphtho[1,8-ab]heptalene-14-carboxylate], for which the half-inhibitory concentration (IC50) in [8] turned out to be 0.0035 µM.

For `C#Cc1c(F)ccc2cc(O)cc(-c3nc4c5c(nc(OC[C@@]67CCCN6C[C@H](F)C7)nc5c3F)N3C[C@H]5CC[C@H](N5)[C@H]3CO4)c12` [Compound 111, 5-ethynyl-6-fluoro-4-((5aS,6S,9R)-1-fluoro-12-(((2R,7aS)-2-fluorotetrahydro-1H-pyrrolizin-7a(5H)-yl)methoxy)-5a,6,7,8,9,10-hexahydro-5H-4-oxa-3,10a,11,13,14-pentaaza-6,9-methanonaphtho[1,8-ab]heptalen-2-yl)naphthalen-2-ol], the concentration for half-maximal inhibition (IC50) in [8] was 0.012 µM.

Take `C#Cc1c(F)ccc2cc(O)cc(-c3ncc4c(N5CC6CCC(C5)N6)nc(OC[C@@]56CCCN5C[C@H](F)C6)nc4c3F)c12` [MRTX-1133, reference compound]: half-maximal inhibition in series [2] (IC50) required 0.0023 µM. For the same compound, in series [5], it took 0.083 µM to reach half-maximal inhibition (IC50) and the “Selectivity Fold” value worked out at 36 Fold. Further, in series [9], the “Bioavailability (%)” value came to 0.66% and the “Fa*Fg (%)” value was 0.95%.

The values above are taken from patent US20240376123A1, “KRAS G12D INHIBITORS AND USES THEREOF” (SUZHOU ZANRONG PHARMA LIMITED, priority 2021, published 2024).
